Test results from US5519010A, “Sulfated polysaccharide, pharmaceutically acceptable salt thereof, process for preparing same and medicament containing same as effective component” (Taiho Pharmaceutical Co., Ltd., priority 1989, dated 1996).

Legend:
factor VIII = experiment: Anti-coagulation activity in human: VIII IC80 (factor VIII deficient plasma); format: biochemical; conditions: 80% inhibition of factor VIII, contact-activated coagulation time
Experimental: (§1) Using the citric acid-containing plasma obtained from more than 6 normal persons, the D-HG sodium salt (Example 16), a FGAG sodium/potassium salt and a heparin sodium salt were each observed for the activity in respect of anticoagulation parameters (μg/ml).
VIII IC80 is a medicament concentration (μg/ml) for 80% inhibition of factor VIII which was calculated by measuring the activity to prolong the contact-activated coagulation time in the presence of a small amount of factor VIII using a factor VIII deficient plasma.

[1] = system: plasma-free washed platelet; experiment: Inhibitory activity against thrombin-induced platelets aggregation; format: cell-based; conditions: 3 μg/ml; 0.1 U/ml thrombin; rabbit washed platelets (control 86.6)
Experimental: The result of addition of the D-HG sodium salt obtained in Example 16 or a heparin sodium salt having a potency of 185.6 U/mg was evaluated by observing the aggregation of platelets (expressed in an increase of light transmittance) caused by the addition of 0.1 U/ml of thrombin to a suspension of plasma-free washed platelet obtained from a rabbit.

[2] = system: DIC model (thrombin injected into ICR mice); experiment: Effect on DIC model (thrombin-induced fatality, survival rate); format: in vivo; conditions: dose 1 mg/kg i.v. one minute before 800 U/kg thrombin; after 24 hours
Experimental: D-HG, FGAG and heparin were tested for an effect on DIC model in accordance with the method described in Japan J. Pharmacol, 35, 203-227 (1984).
Used as D-HG was the sodium salt obtained in Example 16, as FGAG the sodium/potassium salt obtained in Reference Example 1 and as a heparin a sodium salt having a potency of 185.6 U/mg.
A 800 U/kg of thrombin was intravenously injected into ICR mice (10 to 15 mice a group). […] The D-HG sodium salt, FGAG sodium/potassium salt or heparin sodium salt was intravenously injected one minute before the administration of thrombin.

[3] = system: thrombin generation (inactivation of prothrombin in contact-activated plasma); experiment: Anti-coagulation activity in human: IIaGI (thrombin generation); format: biochemical; conditions: concentration required to double control's time for complete inactivation of prothrombin in contact-activated plasma
Source text: as §1
IIaGI is the concentration (μg/ml) required to double the control's time for complete inactivation of prothrombin in the contact-activated plasma. This represents an activity to inhibit the thrombin generation.

thrombin = experiment: Anti-coagulation activity in human: IIaIC90 (thrombin time); format: biochemical; conditions: concentration for 90% inhibition of thrombin activity, from thrombin time; human plasma
Experimental: as §1
IIaIC90 is a concentration (μg/ml) for 90% inhibition of thrombin activity which was calculated by measuring the activity to prolong the thrombin time.

[4] = system: citric acid-containing plasma (activated partial thromboplastin time); experiment: Anti-coagulation activity in human: x2APTT; format: biochemical; conditions: concentration required to double APTT of control
Source text: as §1

factor X = experiment: Anti-coagulation activity in human: XaIC50 (decomposition of synthetic substrate S2222); format: biochemical; conditions: 50% inhibition of decomposition of synthetic substrate S2222
Source text: as §1
XaIC50 is a medicament concentration (μg/ml) for 50% inhibition of decomposition of synthetic substrate S2222 with a factor X.

Q: How did the “VIII IC80” value (factor VIII) turn out when heparin [Heparin sodium salt] was run?
A: 0.79 µg/mL

Q: And the Light transmittance [1]?
A: 80.2%

Q: And the Survival rate [2]?
A: 80%

Q: And the IIaGI [3]?
A: 1.2 µg/mL

Q: What about the IIaIC90 (thrombin) of the same substance?
A: 0.3 µg/mL

Q: What about the x2APTT [4] of the same substance?
A: 1.2 µg/mL

Q: And the XaIC50 (factor X)?
A: 3.4 µg/mL
